Data reported in patent US9695155B2, “Herbicidal substituted pyrimidinyloxy benzene compounds” (E. I. DU PONT DE NEMOURS AND COMPANY, priority 2013, dated 2017).

Key:
velvetleaf [1] = experiment: Test A preemergence; type: in vivo, Abutilon theophrasti
In short: (§1)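 Scoring: eye-based comparison with untreated controls, 0 for no effect through 100 for complete control, at about day 10. Treatments: directed soil spray preemergence; foliar spray postemergence on 2–10 cm plants at the one- to two-leaf stage. Medium: loam soil with sand.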

corn [2] = experiment: Test A preemergence; type: in vivo, Zea mays; conditions: Zea mays, pre-emergence, 240 h, 0 to 100 scale where 0 is no effect and 100 is complete control
In short: as §1

wheat = experiment: Test A postemergence; type: in vivo, Triticum aestivum; conditions: Triticum aestivum, post-emergence, 240 h, 0 to 100 scale where 0 is no effect and 100 is complete control
In short: as §1

sedge, umbrella = experiment: Test B flooded paddy test; type: in vivo, Cyperus difformis; conditions: Cyperus difformis, Flood, 250 g ai/ha; 0 to 100 scale where 0 is no effect and 100 is complete control; read-out: Plant response rating, Sedge, Umbrella
In short: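 Plants at 2-leaf stage; pots flooded to 3 cm above soil and compound applied directly into paddy water, depth held throughout. After 13 to 15 days in greenhouse, visual rating versus controls on 0 (no effect) to 100 (complete control) scale.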

blackgrass = experiment: Test C preemergence; type: in vivo, Alopecurus myosuroides; conditions: Alopecurus myosuroides, pre-emergence
In short: (§2)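 Seeds were sown in loam–sand blend and sprayed preemergence, while plants at 1- to 4-leaf stage (2–18 cm) in peat-based medium received postemergence sprays; test chemicals were formulated in a non-phytotoxic solvent with surfactant. After 13–15 days in a greenhouse, injury was rated visually against controls, 0 (no effect) to 100 (complete control).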

corn [3] = experiment: Test C preemergence; type: in vivo, Zea mays; conditions: Zea mays, pre-emergence
In short: as §2

pigweed = experiment: Test C preemergence; type: in vivo, Amaranthus retroflexus; conditions: Amaranthus retroflexus, pre-emergence, preemergence, read-out: Pigweed plant response rating
In short: as §2

velvetleaf [4] = experiment: Test C preemergence; type: in vivo, Abutilon theophrasti; conditions: Abutilon theophrasti, pre-emergence, preemergence, read-out: Velvetleaf plant response rating
In short: as §2

Italian ryegrass = experiment: Test C postemergence; type: in vivo, Lolium multiflorum
In short: as §2

wheat, winter = experiment: Test C postemergence; type: in vivo, Triticum aestivum
In short: as §2

galium = experiment: Test C postemergence; type: in vivo, Galium aparine; conditions: Galium, post-emergence
In short: as §2

lambsquarters = experiment: Test C postemergence; type: in vivo, Chenopodium album
In short: as §2

barnyardgrass = experiment: Test C postemergence; type: in vivo, Echinochloa crus-galli; conditions: Echinochloa crus-galli, post-emergence
In short: as §2

oilseed rape = experiment: Test C postemergence; type: in vivo, Brassica napus
In short: as §2

velvetleaf [5] = experiment: Test C postemergence; type: in vivo, Abutilon theophrasti
In short: as §2

[6] = 16 g ai/ha, scale 0 to 100 (0 no effect, 100 complete control)
[7] = 62 g ai/ha, scale 0 (no effect) to 100 (complete control)
[8] = 125 g ai/ha, scale 0 (no effect) to 100 (complete control)
[9] = 31 g ai/ha, postemergence, visual rating, scale 0 to 100 (0 no effect, 100 complete control), 13 to 15 days

FC(F)(F)c1cn(-c2ccccc2Oc2ncc(Cl)cn2)nn1 [Compound 166, 5-chloro-2-[2-[4-(trifluoromethyl)-1H-1,2,3-triazol-1-yl]phenoxy]pyrimidine]
Velvetleaf plant response rating (0 to 100 scale) (velvetleaf [1]; 125 g ai/ha): 100
pest or weed control at 500 g/ha (velvetleaf [1]; Abutilon theophrasti, pre-emergence, 240 h, 500 g ai/ha, 0 to 100 scale where 0 is no effect and 100 is complete control, read-out: Velvetleaf plant response rating): 100%
Corn plant response rating (crop injury, 0 = no effect, 100 = complete kill) at 125 g/ha (corn [2]; 125 g ai/ha): 30%
plant injury at 500 g/ha (corn [2]; 500 g ai/ha, read-out: Corn plant response rating): 30%
plant injury at 125 g/ha (wheat; 125 g ai/ha, read-out: Wheat plant response rating): 60%
plant injury at 500 g/ha (wheat; 500 g ai/ha, read-out: Plant response rating, Wheat): 70%
pest or weed control at 250 g/ha (sedge, umbrella): 95%
pest or weed control at 16 g/ha (blackgrass; 16 g ai/ha, preemergence, scale 0 to 100 (0 no effect, 100 complete control), read-out: Blackgrass plant response rating): 40%
pest or weed control at 62 g/ha (blackgrass; 62 g ai/ha, preemergence, scale 0 (no effect) to 100 (complete control), read-out: Blackgrass plant response rating): 90%
pest or weed control at 125 g/ha (blackgrass; 125 g ai/ha, preemergence, scale 0 (no effect) to 100 (complete control), read-out: Blackgrass plant response rating): 100%
pest or weed control at 31 g/ha (blackgrass; Preemergence, 31 g ai/ha, scale 0 to 100, 0 no effect, 100 complete control, read-out: Plant response rating, Blackgrass): 85%
plant injury at 16 g/ha (corn [3]; 16 g ai/ha, preemergence, scale 0 to 100 (0 no effect, 100 complete control), read-out: Corn plant response rating): 0%
plant injury at 62 g/ha (corn [3]; 62 g ai/ha, preemergence, scale 0 (no effect) to 100 (complete control), read-out: Corn plant response rating): 40%
plant injury at 125 g/ha (corn [3]; 125 g ai/ha, preemergence, scale 0 (no effect) to 100 (complete control), read-out: Corn plant response rating): 80%
Corn plant response rating (crop injury, 0 = no effect, 100 = complete kill) at 31 g/ha (corn [3]; Preemergence, 31 g ai/ha, scale 0 to 100, 0 no effect, 100 complete control): 25%
pest or weed control at 16 g/ha (pigweed; [6]): 100%
pest or weed control at 62 g/ha (pigweed; [7]): 100%
pest or weed control at 125 g/ha (pigweed; [8]): 100%
pest or weed control at 16 g/ha (velvetleaf [4]; [6]): 80%
pest or weed control at 62 g/ha (velvetleaf [4]; [7]): 100%
pest or weed control at 125 g/ha (velvetleaf [4]; [8]): 100%
Ryegrass, Italian plant response rating (Italian ryegrass; [9]): 5
pest or weed control at 16 g/ha (Italian ryegrass; Lolium multiflorum, post-emergence, 16 g ai/ha, postemergence, 0 is no effect, 100 is complete control, read-out: Plant response rating (0 to 100), Ryegrass, Italian): 0%
pest or weed control at 125 g/ha (Italian ryegrass; Lolium multiflorum, post-emergence, 125 g ai/ha, postemergence, visual rating, scale 0 to 100 (0 no effect, 100 complete control), read-out: Plant response rating, Ryegrass, Italian): 30%
pest or weed control at 62 g/ha (Italian ryegrass; Lolium multiflorum, post-emergence, Postemergence, 62 g ai/ha, scale 0 to 100 (0 no effect, 100 complete control), read-out: Plant response rating, Ryegrass, Italian): 15%
Wheat plant response rating (wheat, winter; [9]): 5
plant injury at 16 g/ha (wheat, winter; Triticum aestivum, post-emergence, 16 g ai/ha, postemergence, 0 is no effect, 100 is complete control, read-out: Plant response rating (0 to 100), Wheat): 5%
plant injury at 125 g/ha (wheat, winter; Triticum aestivum, post-emergence, 125 g ai/ha, postemergence, visual rating, scale 0 to 100 (0 no effect, 100 complete control), read-out: Plant response rating, Wheat): 20%
plant injury at 62 g/ha (wheat, winter; Triticum aestivum, post-emergence, Postemergence, 62 g ai/ha, scale 0 to 100 (0 no effect, 100 complete control), read-out: Plant response rating, Wheat): 35%
pest or weed control at 16 g/ha (galium; 16 g ai/ha, postemergence, 0 is no effect, 100 is complete control, read-out: Plant response rating (0 to 100), Galium): 80%
pest or weed control at 31 g/ha (galium; 31 g ai/ha, postemergence, visual rating, scale 0 to 100 (0 no effect, 100 complete control), 13 to 15 days, read-out: Galium plant response rating): 85%
pest or weed control at 125 g/ha (galium; 125 g ai/ha, postemergence, visual rating, scale 0 to 100 (0 no effect, 100 complete control), read-out: Plant response rating, Galium): 95%
pest or weed control at 62 g/ha (galium; Postemergence, 62 g ai/ha, scale 0 to 100 (0 no effect, 100 complete control), read-out: Plant response rating, Galium): 90%
Lambsquarters plant response rating (lambsquarters; [9]): 80
pest or weed control at 16 g/ha (lambsquarters; Chenopodium album, post-emergence, 16 g ai/ha, postemergence, 0 is no effect, 100 is complete control, read-out: Plant response rating (0 to 100), Lambsquarters): 40%
pest or weed control at 125 g/ha (lambsquarters; Chenopodium album, post-emergence, 125 g ai/ha, postemergence, visual rating, scale 0 to 100 (0 no effect, 100 complete control), read-out: Plant response rating, Lambsquarters): 98%
pest or weed control at 62 g/ha (lambsquarters; Chenopodium album, post-emergence, Postemergence, 62 g ai/ha, scale 0 to 100 (0 no effect, 100 complete control), read-out: Plant response rating, Lambsquarters): 95%
pest or weed control at 16 g/ha (barnyardgrass; 16 g ai/ha, postemergence, 0 is no effect, 100 is complete control, read-out: Plant response rating (0 to 100), Barnyardgrass): 5%
pest or weed control at 31 g/ha (barnyardgrass; 31 g ai/ha, postemergence, visual rating, scale 0 to 100 (0 no effect, 100 complete control), 13 to 15 days, read-out: Barnyardgrass plant response rating): 10%
pest or weed control at 125 g/ha (barnyardgrass; 125 g ai/ha, postemergence, visual rating, scale 0 to 100 (0 no effect, 100 complete control), read-out: Plant response rating, Barnyardgrass): 15%
pest or weed control at 62 g/ha (barnyardgrass; Postemergence, 62 g ai/ha, scale 0 to 100 (0 no effect, 100 complete control), read-out: Plant response rating, Barnyardgrass): 10%
Oilseed Rape plant response rating (oilseed rape; [9]): 90
plant injury at 16 g/ha (oilseed rape; Brassica napus, post-emergence, 16 g ai/ha, postemergence, 0 is no effect, 100 is complete control, read-out: Plant response rating (0 to 100), Oilseed Rape): 60%
plant injury at 125 g/ha (oilseed rape; Brassica napus, post-emergence, 125 g ai/ha, postemergence, visual rating, scale 0 to 100 (0 no effect, 100 complete control), read-out: Plant response rating, Oilseed Rape): 98%
plant injury at 62 g/ha (oilseed rape; Brassica napus, post-emergence, Postemergence, 62 g ai/ha, scale 0 to 100 (0 no effect, 100 complete control), read-out: Plant response rating, Oilseed Rape): 95%
Velvetleaf plant response rating (velvetleaf [5]; [9]): 55
pest or weed control at 16 g/ha (velvetleaf [5]; Abutilon theophrasti, post-emergence, 16 g ai/ha, postemergence, 0 is no effect, 100 is complete control, read-out: Plant response rating (0 to 100), Velvetleaf): 45%
pest or weed control at 125 g/ha (velvetleaf [5]; Abutilon theophrasti, post-emergence, 125 g ai/ha, postemergence, visual rating, scale 0 to 100 (0 no effect, 100 complete control), read-out: Plant response rating, Velvetleaf): 85%
pest or weed control at 62 g/ha (velvetleaf [5]; Abutilon theophrasti, post-emergence, Postemergence, 62 g ai/ha, scale 0 to 100 (0 no effect, 100 complete control), read-out: Plant response rating, Velvetleaf): 80%
